Test [1] has as its target T1, Recombinant GST-Tie2 (Homo sapiens, UniProt Q02763).
T1 construct: GST
Briefly: Tie2 Fluorescence Polarization Kinase Activity Assay (TIE2-FP). It is filed as biochemical. Particulars: activated Tie2, 200 μM ATP. The protocol: Tie2 Fluorescence Polarization Kinase Activity Assay: (TIE2-FP)
Activation of Recombinant Tie2 Activation:
Recombinant GST-Tie2 was activated by incubating the enzyme in 20 mM Tris-HCl, pH 7.5, 12 mM MgCl2, 100 mM NaCl, 20 μM sodium vanidate, 1 mM DT and 300 μM ATP at room temperature for 2 hours. The activation mixture was then passed through a NAP-25 desalting column (Pharmacia Biotech cat. no. 17-0852-O2) to remove the free ATP. The activated enzyme was stored as aliquots at −80° C. in 20 mM Tris-HCl, pH 7.5 and 100 mM NaCl.
The final assay conditions were 50 mM HEPES, pH 7.5, 5% DMSO (when screening compounds), 200 μM ATP, 5 mM MgCl2, 1 mM DTT, 50 μM sodium vanidate, 1 nM activated enzyme, and 200 μM peptide. IC50's of compounds were measured under subsaturating ATP (200 μM) and varing concentrations of activated Tie2 and peptide substrate (RFWKYEFWR-OH; MW 1873 Da, TFA salt). Panvera Anti-phosphotyrosine antibody (Cat#P2840) and PTK Green Tracer (Cat#P2842) were used to detect the phosphorylated peptide. Polarization was measured on a TECAN Polarion in 138-second cycles for 30 minutes at room temperature. IC50's were then determined from the % polarization using normal calculation methods.
On the technique in general: Fluorescence polarisation rises when a labelled molecule tumbles more slowly, as on binding a larger partner.

Test [2] has as its target T2, GST-VEGFR2 (Homo sapiens, UniProt P35968).
T2 construct: GST-VEGFR2, baculovirus expressed recombinant constructs of the intracellular domains of human TIE2 tagged by GST; made in house
Briefly: VEGF-R2 Enzyme Assay (VEGF-E), LANCE method. It counts as biochemical. Conditions: GST-VEGFR2, 75 μM ATP, peptide phosphorylation. An excerpt:
VEGF-R2 Enzyme Assay VEGF-E)
The VEGF enzyme assay used the LANCE method (Wallac) and GST-VEGFR2, baculovirus expressed recombinant constructs of the intracellular domains of human TIE2 tagged by GST. The method measured the ability of the purified enzymes to catalyse the transfer of the γ-phosphate from ATP onto tyrosine residues in a biotinylated synthetic peptide, (biotin-aminohexyl-EEEEYFELVAKKKK-NH2). This peptide phosphorylation was detected using the following procedure: GST-VEGFR2 was incubated for 40-60 mins at room temperature with 75 μM ATP, 5 mM MgCl2, 0.1 mM DTT, 0.1 mg/mL BSA and the test compound (diluted from a 10 mM stock in DMSO for desired concentration) in 100 mM HEPES buffer. The reaction was stopped by the addition of EDTA (final concentration 50 mM). Streptavidin linked-APC (allophycocyanin, Molecular Probe) and Europium-labeled anti-phosphorylated tyrosile antibody (Wallac) were then added at the final concentration of 15 nM and 1 nM, respectively. The APC signal was measured using an ARVO multilabel counter (Wallac Berthold, Japan). The percent inhibition of activity was calculated relative to blank control wells. The concentration of test compound that inhibits 50% of activity (IC50) was interpolated using nonlinear regression (Levernberg-Marquardt) and the equation, γ=Vmax (1−x/(K+x))+Y2, where “K” was equal to the IC50. The IC50 values were converted to pIC50 values, i.e., −log IC50 in Molar concentration.

The subject of test [3] is Human umbilical cord endothelial cells (HUVEC). Description: VEGF-Driven Cellular Proliferation Assay: BrdU Incorporation Assay (VEGF-C). It counts as cell-based. The protocol:
VEGF-Driven Cellular Proliferation Assay: BrdU Incorporation Assay (VEGF-C)
Human umbilical cord endothelial cells (HUVEC, Clonetics, CC2519) were passaged in Type I collagen-coated 100-mm petridishes in EGM-MV medium (Clonetics, CC3125) at 37 C in a humidified 5% CO2, 95% air incubator. (HUVEC passaged more than 6 times in vitro were discarded and not subjected to assaying.) The cells were harvested using trypsin/EDTA, counted using a haemocytometer and plated at 5000 cells/well in a Type I-collagen coated 96-well plate (Becton Dickinson, 354407) in M199 medium (Gibco BRL, 12340-030) containing 5% FBS (Hyclone, A 1115-L) and gentamicin (at 50 ug/ml, Gibco BRL). After incubation overnight at 37° C., the media were replaced with 100 ul of M199 serum-free medium containing compounds at various concentrations with 0.6% DMSO and gentamicin. The compounds were diluted in serum-free M199 medium from 10 mM stock solutions prepared in 100% DMSO. After a 30 min incubation at 37° C. the cells were fed with 100 ul of serum-free M199 medium containing gentamicin, 0.2% culture-grade bovine serum albumin (BSA, Sigma A1993) and 20 ng/ml of VEGF (R&D systems, 293-VE) or 0.6 ng/ml of basic FGF (R&D systems, 233-FB), and cultured at 37° C. for another 24 h. The cells were pulsed with bromodeoxyuridine (BrdU at 10 μM in serum-free M199) at 37° C. for an additional 24 h. The incorporation of BrdU into the proliferating HUVEC were analyzed using BrdU Cell Proliferation ELISA (Roche Molecular Biochemicals, 1647229) according to the manufacturer's protocols. The optical density at 450 nm was measured with a multilabel counter (ARVO SX, Wallac). The percent inhibition of cell growth was calculated relative to blank control wells. The concentration of test compound that inhibits 50% of cell growth (IC50) was interpolated using nonlinear regression (Levernberg-Marquardt) and the equation, γ=Vmax (1−x/(K+x))+Y2, where “K” was equal to the IC50. The IC50 values were converted to pIC50 values, i.e., −log IC50 in Molar concentration.

T1 sequence (Q02763 770-1124 limits assumed): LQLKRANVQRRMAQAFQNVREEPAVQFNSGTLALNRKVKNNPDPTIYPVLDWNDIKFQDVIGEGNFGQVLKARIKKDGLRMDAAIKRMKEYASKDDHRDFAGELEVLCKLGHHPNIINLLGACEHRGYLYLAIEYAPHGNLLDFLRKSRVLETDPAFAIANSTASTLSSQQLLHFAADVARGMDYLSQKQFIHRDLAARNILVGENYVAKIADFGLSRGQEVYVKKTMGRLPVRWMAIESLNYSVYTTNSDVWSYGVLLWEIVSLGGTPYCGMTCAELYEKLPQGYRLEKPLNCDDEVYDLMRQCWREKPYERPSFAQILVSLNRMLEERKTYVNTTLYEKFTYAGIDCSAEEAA
T2 sequence (P35968 786-1356 limits assumed): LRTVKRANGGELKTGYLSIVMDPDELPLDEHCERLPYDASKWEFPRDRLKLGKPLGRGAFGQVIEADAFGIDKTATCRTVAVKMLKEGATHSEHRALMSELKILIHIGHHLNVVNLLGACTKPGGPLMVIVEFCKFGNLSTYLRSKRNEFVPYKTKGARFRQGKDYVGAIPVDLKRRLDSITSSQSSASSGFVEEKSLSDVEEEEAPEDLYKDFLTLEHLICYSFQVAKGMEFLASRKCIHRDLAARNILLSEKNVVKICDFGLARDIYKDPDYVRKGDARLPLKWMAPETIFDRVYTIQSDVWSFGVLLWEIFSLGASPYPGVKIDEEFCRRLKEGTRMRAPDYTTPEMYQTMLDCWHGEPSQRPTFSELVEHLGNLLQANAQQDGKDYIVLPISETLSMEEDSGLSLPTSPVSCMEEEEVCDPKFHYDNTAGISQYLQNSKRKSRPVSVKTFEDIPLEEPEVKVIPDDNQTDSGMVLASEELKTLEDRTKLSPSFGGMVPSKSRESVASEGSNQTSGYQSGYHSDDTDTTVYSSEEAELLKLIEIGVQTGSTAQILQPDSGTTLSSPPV

In general, IC50 refers to the concentration at which inhibition is half-maximal. Take `CN(c1cccc(NC(=O)Nc2cccc(F)c2)c1)c1ccnc(Nc2cccc(S(N)(=O)=O)c2)n1` [Example 16, 3-({4-[[3-({[(3-Fluorophenyl)amino]carbonyl}amino)phenyl](methyl)amino]pyrimidin-2-yl}amino)benzenesulfonamide]: the IC50 in test [1] is 100 to 1000 nM; in test [2], below 100 nM; in test [3], below 100 nM.
Turning to `CCS(=O)(=O)c1ccc(OC)c(Nc2nccc(N(C)c3ccc(NC(=O)Nc4cc(C(F)(F)F)ccc4F)cc3)n2)c1` [Example 17, N-{4-[(2-{[5-(Ethylsulfonyl)-2-methoxyphenyl]amino}pyrimidin-4-yl)(methyl)amino]phenyl}-N′-[2-fluoro-5-(trifluoromethyl)phenyl]urea], the 50% inhibitory concentration (IC50) in test [1], in test [2] and in test [3] was below 100 nM throughout.
Take `CCS(=O)(=O)c1ccc(OC)c(Nc2nccc(N(C)c3ccc(NC(=O)Nc4cccc(F)c4)cc3)n2)c1` [Example 18, N-{4-[(2-{[5-(Ethylsulfonyl)-2-methoxyphenyl]amino}pyrimidin-4-yl)(methyl)amino]phenyl}-N′-(3-fluorophenyl)urea]: the IC50 in test [1], in test [2] and in test [3] was below 100 nM each time.
Consider `CCc1cccc(NC(=O)Nc2ccc(N(C)c3ccnc(Nc4ccc(S(N)(=O)=O)cc4)n3)cc2)c1` [Example 20, 4-({4-[[4-({[(3-ethylphenyl)amino]carbonyl}amino)phenyl](methyl)amino]pyrimidin-2-yl}amino)benzenesulfonamide], for which the IC50 in test [1], in test [2] and in test [3] was below 100 nM in each case.
With `CN(c1ccc(NC(=O)Nc2ccc(OC(F)(F)F)cc2)cc1)c1ccnc(Nc2ccc(S(N)(=O)=O)cc2)n1` [Example 21, 4-{[4-(methyl{4-[({[4-(trifluoromethoxy)phenyl]amino}carbonyl)amino]phenyl}amino)pyrimidin-2-yl]amino}benzenesulfonamide], the 50% inhibitory concentration (IC50) in test [1], in test [2] and in test [3] was below 100 nM throughout.

The values above are taken from US7459455B2, “Pyrimidine compounds” (SmithKline Beecham Corporation, priority 2002, dated 2008).
